Patent US20240269321A1, “PREPARATION AND STORAGE OF LIPOSOMAL RNA FORMULATIONS SUITABLE FOR THERAPY” (BioNTech SE, priority 2020, published 2024)
“Also recorded” adds a separate entry of the source. Like-named read-outs stand apart in the source and are kept apart here.

What was measured:
[1] = DOPE solubility in ethanol (HPLC); type: physicochemical
Protocol: DOPE and DOPE/DOTMA solubility in ethanol was investigated by preparing 300 mM DOPE or 330 mM DOPE/DOTMA (66:33) solutions in ethanol. The lipids were dissolved by incubating the lipid solutions at 37° C. for 20 minutes. The DOPE solutions were centrifuged at 17000 G for 1h and the DOPE concentration was measured in the supernatant by HPLC. The DOTMA/DOPE solutions were filtered through a 0.22 μm PES syringe filter and the lipid concentration was measured in the filtrate by HPLC. Lipid concentration in the different liposome formulations were measured by HPLC (Agilent technologies. Santa Clara. USA) using a Sunfire C18 2.5 μm 4.6×75 mm column (Waters. Massachusetts. USA) and a wave length of 205 nm. Mobile phase A was a mixture of 70% methanol/30% isopropanol/0.1% TFA, mobile phase B was a mixture of 55% methanol/15% isopropanol/30% water/0.1% TFA. Liposomes samples were or not diluted with water to 3 mM total lipid concentration. It has been tested if DOPE-containing solutions of higher concentration can be prepared (in the supersaturated state) and used for ethanol injection for liposome manufacturing (next section).

[2] = Freezing of RNA lipoplexes with cryoprotectants and NaCl (particle size); type: physicochemical; conditions: for preservation of particle size after a single freezing step: 20% (w/v) cryoprotectant, 0 to 60 mM NaCl, −30° C.
Text: Methods: Different compounds representative for monosaccharides (glucose and sorbitol), disaccharides (sucrose and trehalose), amino acids (arginine, prolin), triols (glycerin) as well as cryoprotectant systems containing mixtures of different sugars (mannitol and sucrose) were investigated in order to identify suited cryoprotectants (FIGS. 25 and 26). Therefore RNA lipoplexes were frozen in the presence of increasing concentration of these compounds. In order to identify minimum content of cryoprotectant at a certain concentration of NaCl, RNA lipoplexes were frozen in the presence of increasing amounts of sucrose or trehalose as representative cryoprotectants (Table 7). The samples were initially frozen a single time in order to determine the concentration range of cryoprotectant to be investigated in detail. In a third experiment, the efficacy of stabilization of the particle size was challenged by freezing of the RNA lipoplexes up to 10 times in the presence of the cryoprotectant trehalose (Table 8).

[3] = RNA integrity in RNA lipoplexes, accelerated storage at 25° C.; conditions: for stabilization of the RNA integrity by buffer system: 5 mM buffer, pH 6.0-7.0, liposomes with 2 mM acetic acid; for stability of the RNA in RNA lipoplexes by buffer system: 10% sucrose, 6.45 mM NaCl, liposomes with 5 mM acetic acid
Protocol: RNA lipoplexes are incubated under accelerated conditions (25° C.) in the presence of an exemplarily cryoprotectant. RNA integrity was analyzed by capillary electrophoresis over 60 days. Additionally, RNA lipoplexes are incubated under at the anticipated storage conditions (−15° C.) in the presence of an exemplarily cryoprotectant for up to two years. RNA integrity was analyzed by capillary electrophoresis.
The respective RNA lipoplexes were investigated under accelerated conditions (25° C.) and in the frozen state (−15° C.).
RNA lipoplexes were formed with liposomes containing 2 mM of acetic acid. The respective RNA lipoplexes were investigated under accelerated conditions (25° C.) and in the frozen state (−15° C.).
Method: All RNA lipoplexes were automatically prepared in a single batch and the different concentrations of HEPES were adjusted by the addition of a cryoprotectant solution containing different amounts of HEPES. Particle sizes and polydispersity of RNA lipolexes were analyzed by photon correlation spectroscopy (PCS) measurements. Additionally, the RNA integrity was analyzed by capillary electrophoresis and the pH was measured.
In the following study, the concentration of HEPES which is required for stabilization of the pH of the RNA lipoplexes was investigated. RNA lipoplexes were formed with liposomes containing 5 mM of acetic acid and different concentrations of HEPES were adjusted by using different cryoprotectant solutions and the respective RNA lipoplexes were investigated under accelerated conditions (25° C.). The pH range from pH 6.2 to 7.2 was tested.
In the following study, the long-term stability of RNA lipoplexes in the frozen state was investigated with the combination of the reduced concentration of NaCl and Sucrose in the presence of either HEPES or Histidine as a buffering agent at a pH of 6.5.
To analyze the RNA integrity, the RNA had to be isolated from the RNA lipoplexes. Cryoprotected RNA lipoplexes were mixed with RNeasy kit (Qiagen) RLT buffer in a ratio of 1 to 3.5. Then ethanol was added in a ratio of 1 part ethanol to 1.8 parts LPX-RLT.
The further RNA isolation was done using the RNeasy Mini Kit protocol and the RNeasy Mini Kit from Qiagen.
The integrity of the RNA was analyzed using a 48 capillary Fragment Analyzer Automated System by Advanced Analytical (AATI) according to the manufacturers instructions. Results were analyzed via PROSize 2.0 version 2.0.051 data analysis software.
Method: BM1 RNA lipoplexes were prepared as described above. All other RNA lipoplexes were prepared as described above with liposomes containing 5 mM acetic acid.
BM1 RNA lipoplexes were cryoprotected and RNA concentration adjusted as described above. All other RNA lipoplexes were cryoprotected by adding cryoprotection buffer containing the respective buffer substance in a ratio of 1 to 6.7. Final pH values were titrated by adding HCl or NaOH to the cryoprotected RNA lipoplexes, ending up to the following compositions:
Titrated, cryoprotected RNA lipoplexes were filled into 10R glass vials and stored at ambient temperature (25° C.) for at least 61 days. At defined points in time, two vials per group were collected and the RNA integrity was determined.

[4] = Protocol: The mean value calculated from the first DOPE integrity values of the samples directly after manufacturing (0 month) was set to 1 as the initial integrity value of the respective study arm. The following values were normalized to this starting value.
Method: Liposomes were prepared as described above. To acidify the liposomes, different volumes of a 1 M stock solution of acetic acid was added to the liposomes with a total lipid concentration of 0.9 mM. After that, liposomes were stored at different acetic acid concentrations in a range from 0 mM to 3 mM up to a maximum of 6 months at different temperatures (4° C., 25° C. and 40° C.).

[5] = RNA integrity in RNA lipoplexes at 40° C. (capillary electrophoresis); conditions: 21 days, no cryoprotectant
Method: RNA lipoplexes are initially incubated under stress conditions (40° C.) in the absence of cryoprotectant. RNA integrity was analyzed by capillary electrophoresis over 21 days. In order to investigate the optimum pH range in the presence of an exemplary cryoprotectant, RNA lipoplexes were incubated in the presence of HEPES and sucrose at 40° C. and RNA integrity was analyzed for 21 days.
RNA integrity was analyzed as a key physicochemical parameter over 21 days.

[6] = Storage of drug product at −15° C., particle size and AF4; type: physicochemical; conditions: derived from AF4 data, worst-case conditions, 12 months
Protocol: The AF4 method is a fractionation technique for characterization and separation of nanoparticles, polymers and proteins based on their diffusion coefficient. The separation is achieved using hydrodynamic forces applied in the flat separation channel. Within a channel, a parabolic flow profile is created due to the laminar flow of mobile phase against which a perpendicular force field is applied. The separation was performed by an elution inject program with an inject flow of 0.2 mL/min, detector flow of 0.5 mL/min and crossflow of 1.5 mL/min. The eluted particles were detected by multi-angle light scattering (MALS) detector (HELLEOS II, Wyatt Technology Corp.Santa Barbara, CA, USA). The LS traces were recorded by ASTRA Software Version 7.1.3.25 (Wyatt Technology Europe, Dernbach Germany).
Method: BM1 RNA lipoplexes were prepared as described above.
All other RNA lipoplexes were cryoprotected by adding cryoprotection buffers with no EDTA disodium salt (groups 0 mM and 0.4 mM EDTA disodium salt) or with EDTA disodium salt in a ratio of 1 to 6.7 to generate different EDTA disodium salt concentrations in the final PD composition.
Method: RNA lipoplexes were prepared with increasing amounts of NaCl for condensation of the RNA and liposomes without acetic acid. […]

[7] = remark: listed apart in the source
Protocol: The samples were frozen at −30° C. and then transferred to the respective temperature for long-term storage (either −15 or −30° C.). After defined storage time, samples were analyzed and preservation of the colloidal stability was analyzed by measuring the particle size using PCS. These experiments were performed at a total RNA concentration of 0.05 mg/mL.
Method: To investigate the minimum content of representative cryoprotectants as sucrose, trehalose, glucose and mixtures including dextran required for long-term storage at −20° C., RNA lipoplexes were frozen at a fixed cryoprotectant content in combination with varying NaCl concentrations. For monomeric or dimeric molecular cryoprotectants as glucose, sucrose, and trehalose a concentration of 22% (w/v) was adjusted. These formulations were frozen and stored at −15 to −40° C. and long-term stability was investigated by measuring the particle size using PCS after defined storage time.
The samples were frozen and stored at −20° C. After defined storage time, samples were analyzed and preservation of the colloidal stability was analyzed by measuring the particle size.

[8] = frozen with increasing amounts of cryoprotectant, Z-average, polydispersity, subvisible particles
[9] = 70 mM NaCl, up to 10 times freezing
[10] = 90 mM NaCl, up to 10 times freezing

In the case of `CCCCCCCC/C=C\CCCCCCCC(=O)OC[C@H](COP(=O)(O)OCCN)OC(=O)CCCCCCC/C=C\CCCCCCCC` [DOPE, 1,2-di-(9Z-octadecenoyl)-sn-glycero-3-phosphoethanolamine], the “DOPE solubility in ethanol” value [1] is reported as 59 mM.
For `OCC(O)CO` [Glycerin], the “stabilization of RNA lipoplexes during freezing” value [2, 8] was “can be used as cryoprotectants for RNA lipoplexes”.
With `O=S(=O)(O)CCN1CCN(CCO)CC1` [HEPES, 2-[4-(2-hydroxyethyl)piperazin-1-yl]ethanesulfonic acid] the “stabilization of the RNA integrity by buffer system” value [3] was “comparable stabilization of the RNA integrity”, the “stability of the RNA in RNA lipoplexes by buffer system” value [3] was “best stability” and the “RNA stability in the drug product by buffer” value ([3]; 61 days, pH 6.4 to 7.0, vs Histidine, MES, Na-Acetate) was “significantly enhanced RNA stability in the drug product”.
With `N[C@@H](Cc1c[nH]cn1)C(=O)O` [Histidine] the “stabilization of the RNA integrity by buffer system” value [3] was “slightly reduced stability” and the “stability of the RNA in RNA lipoplexes by buffer system” value [3] was “lower stability”.
For `CC(=O)O` [acetic acid], the “stability of DOPE in liposomes (DOPE ester hydrolysis)” value ([4]; 0-3 mM acetic acid, 4° C., 25° C., 40° C., up to 6 months) was “Stability increases for all measured temperatures with increasing acetic acid concentration” and the “acetic acid concentration above which stabilization efficacy plateaus” value ([4]; liposomes 0.9 mM total lipid) was “approx. 1 mM”.
In the case of `N=C(N)NCCC[C@H](N)C(=O)O` [arginine], the “stabilization of RNA lipoplexes during freezing” value [2, 8] is reported as “clearly destabilizes the RNA lipoplexes”.
In the case of `O=C([O-])[O-].[Na+].[Na+]` [carbonate, sodium carbonate], the “stabilization of the RNA (RNA integrity) by buffering system” value [5] is reported as “did not result in comparable stabilization of the RNA”.
For `O=C(O)[C@@H]1CCCN1` [proline], the “stabilization of RNA lipoplexes during freezing” value [2] was “can be used as cryoprotectants for RNA lipoplexes”.
With `O=P(O)(O)O` [sodium phosphate] the “stabilization of the RNA (RNA integrity) by buffering system” value [5] was “comparable results”.
For `OC[C@@H](O)[C@@H](O)[C@H](O)[C@@H](O)CO` [sorbitol], the “stabilization of RNA lipoplexes during freezing” value [2, 8] was “can be used as cryoprotectants for RNA lipoplexes; also recorded: stabilization efficacy of sorbitol is lower”.
For `OC[C@H]1O[C@@](CO)(O[C@H]2O[C@H](CO)[C@@H](O)[C@H](O)[C@H]2O)[C@@H](O)[C@@H]1O` [sucrose], the “preservation of particle size after a single freezing step” value [2] was “acceptable preservation of particle size”, the “sucrose concentration to ensure long-term stability of the drug product” value [6] was “at least 12 % (w/v)” and the “stabilization efficacy on long-term storage” value [7] was “No difference in the stabilization efficacy”.
In the case of `OC[C@H]1O[C@H](O[C@H]2O[C@H](CO)[C@@H](O)[C@H](O)[C@H]2O)[C@H](O)[C@@H](O)[C@@H]1O` [trehalose], the “trehalose sufficient for stabilization of RNA lipoplex particle characteristics” value ([2]; 50 mM NaCl, even after 10 times freezing) is reported as ≥ 12.5%, the “trehalose required for exact preservation of the particle size” value [2, 9] is reported as ≥ 22.5% and the “trehalose required for minimum stabilization” value [2, 9] is reported as ≥ 12.5%. The “exact preservation of the particle size” value [2, 10] was “could not be achieved even with the highest investigated concentration of 27.5%”, the “trehalose required for minimum stabilization” value [2, 10] was ≥ 15.0% and the “preservation of particle size after a single freezing step” value [2] was “acceptable preservation of particle size”. The “stabilization efficacy on long-term storage” value [7] was “No difference in the stabilization efficacy”.
